In series [1] the target is T1, Serine/threonine-protein kinase pim-1 (Homo sapiens, UniProt P11309). The experiment in a line: Inhibition of PIM1 (unknown origin) at 0.1 uM.
Target sequence in this assay (P11309 whole entry, looked up): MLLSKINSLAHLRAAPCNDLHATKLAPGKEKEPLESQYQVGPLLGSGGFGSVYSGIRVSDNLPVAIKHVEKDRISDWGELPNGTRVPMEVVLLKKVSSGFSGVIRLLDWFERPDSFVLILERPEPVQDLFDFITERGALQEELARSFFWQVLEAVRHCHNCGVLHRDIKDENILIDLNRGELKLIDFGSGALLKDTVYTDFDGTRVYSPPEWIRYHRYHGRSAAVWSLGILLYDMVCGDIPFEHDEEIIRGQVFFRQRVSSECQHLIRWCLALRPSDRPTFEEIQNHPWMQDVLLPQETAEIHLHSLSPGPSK
Series [2] in a line: Clearance in rat hepatocytes. It is filed as ADME, cell-based, Hepatocyte.
Series [3] can be described thus: Clearance in rat liver microsomes. Format: ADME, microsome. On the technique in general: Microsomes from liver hold many membrane-bound enzymes, among them those of drug oxidation.
The target of series [4] is T2, hERG (KCNH2) (Homo sapiens, UniProt Q12809). Kind of series: Inhibition of human ERG expressed in HEK293 cells at 10 uM after 5 mins by patch clamp assay. Format: cell-based. The settings on record: HEK293 cells that express hERG. For orientation: In patch-clamp work, channel activity is measured electrically.
The nature of series [5]: Metabolic stability in rat intestinal microsomes assessed as compound remaining after 60 mins in presence of NADPH/UDPGA. It is filed as ADME, Intestine, Microsome. The conditions noted are these: intestinal microsomes, read-out: Stability.
A short description of series [6]: Oral bioavailability in rat at 5 mg/kg. It is filed as ADME, organism-based. The settings on record: in vivo.
The target in series [7] is Dual specificity protein kinase CLK1 (Homo sapiens) (UniProt P49759). Kind of series: Inhibition of CLK1 (unknown origin) at 0.1 uM.
For series [8], the species on record is Homo sapiens. The experiment in a line: Inhibition of PIM in human MM1S cells assessed as reduction in S6 s240/244 phosphorylation by Western blot analysis. It is filed as cell-based. In general terms: In western blotting, separated proteins are transferred to a membrane and probed.
The next series has as its system MM1.S. Kind of series: Antiproliferative activity against human MM1S cells after 72 hrs by CellTiter-Glo assay. Format: functional, cell-based.
Series [9] has as its target Receptor-type tyrosine-protein kinase FLT3 (Homo sapiens) (UniProt P36888). Kind of series: Inhibition of FLT3 (unknown origin) at 0.1 uM.
Series [10] is filed under the species Homo sapiens. The experiment in a line: Inhibition of PIM in human […] cells assessed as reduction in 4EBP1 phosphorylation by Western blot analysis. It is filed as cell-based.
For series [11], the species on record is Homo sapiens. Kind of series: Inhibition of PIM in human […] cells assessed as reduction in BAD phosphorylation by Western blot analysis. It is filed as cell-based.
Series [12] concerns the target Serine/threonine-protein kinase pim-2 (Homo sapiens, UniProt Q9P1W9). The experiment in a line: Inhibition of PIM2 (unknown origin) using 5FAM-ARKRRRHPSGPPTA as substrate after 90 mins in presence of ATP by caliper microfluidic mobility shift assay.
Series [13] can be described thus: Clearance in rat at 1 mg/kg, iv. Format: ADME, organism-based. The settings on record: in vivo.
Series [14] deals with T2, hERG (KCNH2). Kind of series: Inhibition of human ERG expressed in HEK293 cells at 1 uM after 5 mins by patch clamp assay. Format: cell-based. The conditions noted are these: HEK293 cells that express hERG.
The species entered for series [15] is Homo sapiens. The experiment in a line: Inhibition of PIM in human MM1S cells assessed as reduction in S6 s235/236 phosphorylation by Western blot analysis. Format: cell-based.
Series [16] concerns the target Serine/threonine-protein kinase pim-3 (Homo sapiens, UniProt Q86V86). Kind of series: Inhibition of PIM3 (unknown origin) using 5FAM-ARKRRRHPSGPPTA as substrate after 90 mins in presence of ATP by caliper microfluidic mobility shift assay.
Series [17] concerns the target T1, Serine/threonine-protein kinase pim-1. The experiment in a line: Inhibition of PIM1 (unknown origin) using 5FAM-ARKRRRHPSGPPTA as substrate after 90 mins in presence of ATP by caliper microfluidic mobility shift assay.
Target sequence in this assay (P11309 whole entry): as the sequence (P11309 whole entry, looked up) above
Series [18] relates to Plasma. Kind of series: Drug level in rat plasma treated with N4-Phenylpyrimidine-2,4-diamine at 5 mg/kg, po. It is filed as ADME, organism-based. The settings on record: in vivo.
Series [19] is described as follows: Metabolic stability in rat intestinal microsomes assessed as compound remaining after 60 mins in absence of NADPH/UDPGA. The conditions noted are these: intestinal microsomes, read-out: Stability. It is filed as ADME, Intestine, Microsome.
A short description of series [20]: Metabolic stability in rat intestinal microsomes assessed as compound remaining after 60 mins in presence of UDPGA. Format: ADME, Intestine, Microsome. The settings on record: read-out: Stability.
A short description of series [21]: Metabolic stability in rat intestinal microsomes assessed as compound remaining after 60 mins in presence of NADPH. The settings on record: read-out: Stability. Format: ADME, Intestine, Microsome.
A short description of series [22]: Apparent permeability across apical to basolateral side in MDCK cells. It is filed as ADME, cell-based, Canis lupus familiaris. The conditions noted are these: dog.
A short description of series [23]: Kinetic solubility of compound at pH 7.4. The settings on record: buffer.
Series [24] can be described thus: Efflux ratio of apparent permeability in MDCK cells. The conditions noted are these: dog.
Series [25] has as its system Plasma. The experiment in a line: Drug metabolism in rat assessed as M1 metabolite formation in plasma at 5 mg/kg, po. Format: ADME, organism-based. The settings on record: in vivo.
The subject of series [26] is Plasma. Kind of series: Drug metabolism in rat assessed as 6-((R)-1-(6-(5-(1-ethyl-1H-pyrazol-4-yl)-1H-pyrazolo[3,4-c]pyridin-3-yl)pyridin-2-yl)piperidin-3-ylamino)-3,4,5-trihydroxytetrahydro-2H-pyran-2-carboxylic acid metabolite formation in plasma at 5 mg/kg, po. Format: ADME, organism-based. The conditions noted are these: in vivo.

One may read the inhibition as the change of the read-out against control, counted positive when it falls. As usually defined, the pIC50 is −log10 of the IC50, conventionally taken in molar units. A lower pIC50 goes with a high IC50. By pKi is commonly meant the Ki on a negative log10 scale, so that one unit is a factor of ten. The term clearance denotes a measure of how efficiently the substance is removed, as volume per time. A low value points to a low capacity for elimination. What is called Papp A→B is how fast a substance crosses the layer from the apical side. For orientation: solubility (kinetic) means the concentration staying in solution when a stock, usually in DMSO, is diluted into the medium. The term efflux ratio denotes the permeability from basolateral to apical divided by that in the opposite direction, in the common usage.

pIC50, pKi: −log10 of the molar value. Values after ≈ are worked out from the molar mass of the structure shown.

T2 sequence (Q12809 whole entry): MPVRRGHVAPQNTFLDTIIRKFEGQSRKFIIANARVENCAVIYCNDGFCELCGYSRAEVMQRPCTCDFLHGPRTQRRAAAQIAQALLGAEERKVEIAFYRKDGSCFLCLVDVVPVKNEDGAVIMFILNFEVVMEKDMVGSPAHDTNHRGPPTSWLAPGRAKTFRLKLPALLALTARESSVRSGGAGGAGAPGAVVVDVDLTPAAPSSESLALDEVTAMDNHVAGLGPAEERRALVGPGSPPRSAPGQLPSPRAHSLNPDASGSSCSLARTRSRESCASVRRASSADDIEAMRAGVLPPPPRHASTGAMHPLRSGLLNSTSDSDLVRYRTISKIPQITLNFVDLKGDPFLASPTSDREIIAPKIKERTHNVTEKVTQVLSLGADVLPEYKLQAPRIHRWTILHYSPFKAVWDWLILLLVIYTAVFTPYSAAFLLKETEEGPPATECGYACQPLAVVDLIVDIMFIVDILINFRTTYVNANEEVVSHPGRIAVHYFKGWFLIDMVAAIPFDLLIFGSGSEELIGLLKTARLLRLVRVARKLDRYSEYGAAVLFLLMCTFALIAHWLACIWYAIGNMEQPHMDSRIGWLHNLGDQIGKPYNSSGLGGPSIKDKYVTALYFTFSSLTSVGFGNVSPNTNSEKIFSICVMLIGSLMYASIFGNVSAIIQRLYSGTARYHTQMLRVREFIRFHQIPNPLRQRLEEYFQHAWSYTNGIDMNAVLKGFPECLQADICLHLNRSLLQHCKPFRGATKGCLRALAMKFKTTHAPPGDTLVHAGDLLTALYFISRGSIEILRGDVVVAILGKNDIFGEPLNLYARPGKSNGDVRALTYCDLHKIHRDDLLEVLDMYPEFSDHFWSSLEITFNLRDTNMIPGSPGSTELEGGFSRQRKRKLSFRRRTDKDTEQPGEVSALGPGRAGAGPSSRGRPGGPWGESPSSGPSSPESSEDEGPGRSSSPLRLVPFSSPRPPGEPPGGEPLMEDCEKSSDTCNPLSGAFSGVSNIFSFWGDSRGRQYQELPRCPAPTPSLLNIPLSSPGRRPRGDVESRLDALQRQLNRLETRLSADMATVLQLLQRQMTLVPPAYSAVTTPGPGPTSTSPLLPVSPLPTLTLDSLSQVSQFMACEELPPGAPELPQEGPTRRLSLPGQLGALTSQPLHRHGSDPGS
Sequence of Serine/threonine-protein kinase pim-2 (Q9P1W9 whole entry): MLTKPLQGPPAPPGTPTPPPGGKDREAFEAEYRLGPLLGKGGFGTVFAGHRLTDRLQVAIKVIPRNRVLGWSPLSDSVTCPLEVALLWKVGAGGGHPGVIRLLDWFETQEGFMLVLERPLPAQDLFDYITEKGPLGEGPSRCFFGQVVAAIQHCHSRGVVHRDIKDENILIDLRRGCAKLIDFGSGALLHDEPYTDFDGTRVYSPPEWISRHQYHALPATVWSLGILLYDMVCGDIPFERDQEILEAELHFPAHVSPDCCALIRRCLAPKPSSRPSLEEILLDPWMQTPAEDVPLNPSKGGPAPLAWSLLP
Sequence of Receptor-type tyrosine-protein kinase FLT3 (Homo sapiens) (P36888 whole entry): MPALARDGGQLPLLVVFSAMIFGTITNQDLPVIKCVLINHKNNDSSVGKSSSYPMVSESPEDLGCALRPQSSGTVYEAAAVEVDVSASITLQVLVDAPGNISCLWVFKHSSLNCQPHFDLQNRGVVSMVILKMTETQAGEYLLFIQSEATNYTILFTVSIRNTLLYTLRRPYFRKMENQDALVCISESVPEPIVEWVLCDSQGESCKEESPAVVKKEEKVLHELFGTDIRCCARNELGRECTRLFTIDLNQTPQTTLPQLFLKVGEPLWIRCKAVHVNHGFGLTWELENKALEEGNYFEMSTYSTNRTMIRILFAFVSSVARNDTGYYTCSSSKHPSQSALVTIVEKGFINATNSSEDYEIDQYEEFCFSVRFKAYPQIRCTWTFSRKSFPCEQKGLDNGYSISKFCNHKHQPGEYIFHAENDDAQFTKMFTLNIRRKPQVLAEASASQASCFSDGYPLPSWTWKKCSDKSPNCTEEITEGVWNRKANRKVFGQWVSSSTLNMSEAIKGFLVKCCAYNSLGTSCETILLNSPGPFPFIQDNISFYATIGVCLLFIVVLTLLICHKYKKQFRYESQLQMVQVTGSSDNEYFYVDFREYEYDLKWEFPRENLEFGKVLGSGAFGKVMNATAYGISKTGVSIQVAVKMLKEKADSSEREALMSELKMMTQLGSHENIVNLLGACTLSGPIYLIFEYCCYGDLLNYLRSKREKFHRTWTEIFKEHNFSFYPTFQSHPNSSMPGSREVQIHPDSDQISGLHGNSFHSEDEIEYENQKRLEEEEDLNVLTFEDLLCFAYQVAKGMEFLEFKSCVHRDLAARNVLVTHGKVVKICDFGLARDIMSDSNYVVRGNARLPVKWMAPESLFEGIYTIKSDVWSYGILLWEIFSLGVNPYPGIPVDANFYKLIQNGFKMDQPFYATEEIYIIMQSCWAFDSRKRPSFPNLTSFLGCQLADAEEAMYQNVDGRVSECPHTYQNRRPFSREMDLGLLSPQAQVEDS
Sequence of Dual specificity protein kinase CLK1 (Homo sapiens) (P49759 whole entry, looked up): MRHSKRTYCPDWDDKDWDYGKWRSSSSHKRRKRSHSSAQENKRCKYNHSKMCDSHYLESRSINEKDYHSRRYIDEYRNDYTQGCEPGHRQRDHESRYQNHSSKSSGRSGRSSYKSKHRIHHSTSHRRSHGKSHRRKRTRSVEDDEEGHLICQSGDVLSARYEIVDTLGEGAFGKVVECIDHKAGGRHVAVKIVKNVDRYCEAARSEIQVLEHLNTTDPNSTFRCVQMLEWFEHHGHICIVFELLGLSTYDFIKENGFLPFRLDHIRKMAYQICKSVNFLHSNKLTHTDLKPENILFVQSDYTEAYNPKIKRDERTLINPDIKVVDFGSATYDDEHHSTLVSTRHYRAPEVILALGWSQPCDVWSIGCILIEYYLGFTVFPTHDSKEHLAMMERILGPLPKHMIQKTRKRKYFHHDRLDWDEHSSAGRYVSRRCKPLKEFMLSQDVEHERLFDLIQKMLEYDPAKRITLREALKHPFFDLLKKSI

In the case of `COc1ccc(-n2ncc3cnc(-c4cncc(C)n4)cc32)nc1N1CCC[C@H](N)C1`, the inhibition in series [1] is 100%; in [7] it was 97%; in the series listed under Homo sapiens [8] it was “Dose-dependent effect”; in series [9], 82%; in the series listed under Homo sapiens [10], “Dose-dependent effect”; in the series filed under Homo sapiens [11] it was “Dose-dependent effect”. In addition, the inhibition entry in the series listed under Homo sapiens [15] was “Dose-dependent effect”. The CLhep predicted in series [2] was 19 mL/min/kg; in series [3] it was 29 mL/min/kg. Moreover, the inhibition at 5 min, 10 µM against hERG (KCNH2) [4] amounted to 49%. Besides, the remaining at 1 h in [5] turned out to be 101%. In series [6], the bioavailability was found to be 103%. This compound also had a pIC50 in the series on MM1.S of 6.29 to 6.30. Besides, the pKi in [12] was 9.96; in series [16], 10.70 to 11.10; in [17], 10.52 to 10.74. Moreover, the clearance in series [13] came to 34 mL/min/kg. On hERG (KCNH2) [14], this compound displayed an inhibition at 5 min, 1 µM of 37%.

On to `CCn1cc(-c2cc3c(-c4cccc(N5CCC[C@@H](NC(C)=O)C5)n4)n[nH]c3cn2)cn1`, for which the Drug metabolism result in the series with Plasma [18] is reported as “Metabolite_Detected”.

For the compound `Cc1cncc(-c2cc3c(-c4cccc(N5CCCNCC5)n4)n[nH]c3cn2)n1`, the remaining at 1 h amounted to 103% in series [19], 59% in [5], 40% in [20] and 97% in [21]. For the same compound, the CLhep predicted in [2] was 35 mL/min/kg; in [3], 33 mL/min/kg. In addition, in series [22], the Papp A→B is 3.2 ×10⁻⁶ cm/s. Also, in series [6], the bioavailability amounted to 1.3%. In series [23], this compound came in with a kinetic solubility of 38.5 µM (≈ 14.9 µg/mL). The efflux ratio in [24] came out at 4.9. For the same compound, the negative-log IC50 (pIC50) in the series on MM1.S was 6.66. Besides, the values for the pKi in [12], in [16] and in series [17] were 9.77 to 9.96, 10.39 to 10.40 and 10.66 to 10.70, respectively. The same compound showed a clearance in series [13] of 65 mL/min/kg.

As for `CCn1cc(-c2cc3c(-c4cccc(N5CCC[C@@H](N)C5)n4)n[nH]c3cn2)cn1`, the remaining at 1 h came to 96% in [19], 30% in series [5], 15% in [20] and 83% in series [21]. For the same compound, the values for the CLhep predicted in series [2] and in [3] were 14 mL/min/kg and 24 mL/min/kg, respectively. Also, the Drug metabolism entry in the series on Plasma [25], in the series with Plasma [26] and with Plasma [18] was “Metabolite_Detected” in each case. In addition, the apparent permeability from apical to basolateral (Papp A→B) in series [22] stood at 0.4 ×10⁻⁶ cm/s. For the same compound, the bioavailability in [6] amounted to 1%. The compound also came in with a kinetic solubility in [23] of 116 µM (≈ 45.1 µg/mL). Also, the efflux ratio in series [24] amounted to 56. The same compound displayed a clearance in series [13] of 8 mL/min/kg.

(Values after ChEMBL document CHEMBL4049450, “Discovery of 5-Azaindazole (GNE-955) as a Potent Pan-Pim Inhibitor with Optimized Bioavailability” (J Med Chem, 2017).)
